Results: US20230116972A1, “CD38 MODULATORS AND METHODS OF USE THEREOF” (Cytokinetics, Inc., priority 2021, published 2023)

Columns and labels:
human CD38 = molecular target: T1, human CD38 (Homo sapiens, UniProt P28907); assay: human recombinant CD38 enzyme assay (hydrolysis of NAD+); format: biochemical; settings: human recombinant CD38, 0.4 nM enzyme, 62.5 μM NAD+; read-out: hCD38 BioChem IC50
T1 sequence (P28907 1-300): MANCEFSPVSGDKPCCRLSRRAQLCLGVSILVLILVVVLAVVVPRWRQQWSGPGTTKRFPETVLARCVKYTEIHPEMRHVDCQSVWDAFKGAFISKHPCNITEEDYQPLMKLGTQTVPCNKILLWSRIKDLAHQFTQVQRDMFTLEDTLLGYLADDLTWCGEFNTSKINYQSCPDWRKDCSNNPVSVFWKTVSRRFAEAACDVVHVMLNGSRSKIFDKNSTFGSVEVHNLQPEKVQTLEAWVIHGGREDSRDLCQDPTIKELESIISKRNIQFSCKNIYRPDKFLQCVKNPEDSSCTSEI
Description: (§1) Compounds described herein were assayed for their ability to inhibit the hydrolysis of NAD+ by the protein CD38. The human and mouse recombinant enzyme assays measure the inhibition of the enzyme activity by compounds using recombinant enzymes and substrates in a buffered cell-free system. The assay conditions closely mimic cellular environments. Dose responses were measured using an assay to detect the hydrolysis of NAD+. All experiments were performed in the 384-well format. […] Enzyme reactions were initiated with the addition of 10 μL of a solution containing NAD+ substrate. Subsequent detection of remaining NAD+ was determined by first converting NAD+ to NADH using alcohol dehydrogenase, then using the resulting NADH to reduce resazurine to the fluorescent product resorufin. […] Following an incubation of 60 min at ambient temperature, 10 μL of 120 mM ethanol+20 U/ml alcohol dehydrogenase+30 mM semicarbazide+0.03 mM CD38 inhibitor in 50 mM HEPES, pH 7.5, 0.2 mg/ml BSA, was added and incubated at ambient temperature for 15 min. Then 10 μl 0.32 mM NaOH was added to stop the ADH reaction (plates incubated at ambient temperature for 15 min), followed by 30 μL of 0.05 mM resazurine+1000 mU/ml Diaphorase in 200 mM Tris-HCl, pH 7.7 for 15 min at ambient temperature. The plates were read for fluorescence (Excitation/Emission=540 nm/590 nm) using an EnVision plate reader. […] Note that, in Table 4, the “Compound No” corresponds to the compound numbers in Table 1.

mouse CD38 = molecular target: T2, mouse CD38 (Mus musculus, UniProt P56528); assay: mouse recombinant CD38 enzyme assay (hydrolysis of NAD+); format: biochemical; settings: read-out: mCD38 BioChem IC50
T2 sequence (P56528 1-304): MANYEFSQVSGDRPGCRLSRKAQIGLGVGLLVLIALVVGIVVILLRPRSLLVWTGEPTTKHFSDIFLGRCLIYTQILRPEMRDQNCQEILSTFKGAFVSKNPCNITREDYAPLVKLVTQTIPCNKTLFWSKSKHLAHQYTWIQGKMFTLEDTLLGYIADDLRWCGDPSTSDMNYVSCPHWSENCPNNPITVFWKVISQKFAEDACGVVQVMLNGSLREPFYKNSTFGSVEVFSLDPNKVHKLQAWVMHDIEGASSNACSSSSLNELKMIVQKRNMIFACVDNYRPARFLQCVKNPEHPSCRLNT
Description: as §1

Compound	IC50 (human CD38) [nM]	IC50 (mouse CD38) [nM]
CO[C@H]1CC[C@H](NC(=O)c2cc(N3CCCC3)cc(-n3ccnc3)n2)CC1 [Compound 180, 6-(1H-imidazol-1-yl)-N-(4-methoxycyclohexyl)-4-(pyrrolidin-1-yl)picolinamide]	78	8
COc1cc(-n2ccnc2)nc(C(=O)N[C@H]2CC[C@H](OC)CC2)n1 [Compound 208, 4-(1H-imidazol-1-yl)-6-methoxy-N-((1r,4r)-4-methoxycyclohexyl)pyrimidine-2-carboxamide]	961	531
Cn1cncc1-c1ccnc(C(=O)N[C@H]2CC[C@@](O)(c3ccccc3)CC2)n1 [Compound 253, N-((1r,4r)-4-hydroxy-4-phenylcyclohexyl)-4-(1-methyl-1H-imidazol-5-yl)pyrimidine-2-carboxamide]	1700	124
CO[C@H]1CC[C@H](NC(=O)c2cc(C3CC4(COC4)C3)nc(-c3cncn3C)n2)CC1 [Compound 327, N-((1r,4r)-4-methoxycyclohexyl)-2-(1-methyl-1H-imidazol-5-yl)-6-(2-oxaspiro[3.3]heptan-6-yl)pyrimidine-4-carboxamide]	22.1	2.6
COCCO[C@H]1C[C@H](NC(=O)c2nccc(-n3ccnc3)n2)C1 [Compound 223, 4-(1H-imidazol-1-yl)-N-((1r,3r)-3-(2-methoxyethoxy)cyclobutyl)pyrimidine-2-carboxamide]	1630	459
Cn1cncc1-c1ccnc(C(=O)N[C@H]2CC[C@H](OC(F)(F)F)CC2)n1 [Compound 317, 4-(1-methyl-1H-imidazol-5-yl)-N-((1r,4r)-4-(trifluoromethoxy)cyclohexyl)pyrimidine-2-carboxamide]	79.1	41.7

The next compounds have a lower IC50 (human CD38) than those just listed; values first:

IC50 (human CD38) [nM]	IC50 (mouse CD38) [nM]	Compound
17.3	2	Cn1cncc1-c1nc(C(=O)N[C@H]2CC[C@H](OCC(F)(F)F)CC2)cc(C2CCC(F)(F)CC2)n1 [Compound 339, 6-(4,4-difluorocyclohexyl)-2-(1-methyl-1H-imidazol-5-yl)-N-((1r,4r)-4-(2,2,2-trifluoroethoxy)cyclohexyl)pyrimidine-4-carboxamide]
1.8	1.5	Cn1cncc1-c1ncc(F)c(C(=O)Nc2ccc(OC(F)F)nc2)n1 [Compound 338, N-(6-(difluoromethoxy)pyridin-3-yl)-5-fluoro-2-(1-methyl-1H-imidazol-5-yl)pyrimidine-4-carboxamide]
7	2	Cn1cncc1-c1nc(C(=O)Nc2ccc(C(F)F)nc2)cc(C2CCC2)n1 [Compound 183, 6-cyclobutyl-N-(6-(difluoromethyl)pyridin-3-yl)-2-(1-methyl-1H-imidazol-5-yl)pyrimidine-4-carboxamide]
3.5	1.1	COc1ccc(NC(=O)c2cc(C3CCOCC3)nc(-c3cncn3C)n2)cn1 [Compound 355, N-(6-methoxypyridin-3-yl)-2-(1-methyl-1H-imidazol-5-yl)-6-(tetrahydro-2H-pyran-4-yl)pyrimidine-4-carboxamide]
11	2	Cn1cncc1-c1nc(C(=O)NC2CCC(F)(F)CC2)cc(C2CCC2)n1 [Compound 182, 6-cyclobutyl-N-(4,4-difluorocyclohexyl)-2-(1-methyl-1H-imidazol-5-yl)pyrimidine-4-carboxamide]
3.3	1	Cn1cncc1-c1nc(C(=O)Nc2ccc(C(F)(F)F)nc2)cc(C2CC3(COC3)C2)n1 [Compound 345, 2-(1-methyl-1H-imidazol-5-yl)-6-(2-oxaspiro[3.3]heptan-6-yl)-N-(6-(trifluoromethyl)pyridin-3-yl)pyrimidine-4-carboxamide]
11.9	6.3	Cn1cncc1-c1ncc(F)c(C(=O)N[C@H]2CC[C@H](OC(F)(F)F)CC2)n1 [Compound 340, 5-fluoro-2-(1-methyl-1H-imidazol-5-yl)-N-((1r,4r)-4-(trifluoromethoxy)cyclohexyl)pyrimidine-4-carboxamide]
